Reference: ChEMBL document CHEMBL1201862, “PubChem BioAssay data set” (2004)
Values belong to the molecule of their own block, whether it stands above or below them. The source made the active and inactive calls.

Assays:
Leucine aminopeptidase = target: T1, Leucine aminopeptidase (Plasmodium falciparum 3D7, UniProt Q8IL11); test: P. falciparum M17LAP inhibitors, primary screen, biochemical, fluorogenic H-Leu-NHMec substrate, 1536-well (AID 1619); type: functional
T1 sequence (Q8IL11 whole entry): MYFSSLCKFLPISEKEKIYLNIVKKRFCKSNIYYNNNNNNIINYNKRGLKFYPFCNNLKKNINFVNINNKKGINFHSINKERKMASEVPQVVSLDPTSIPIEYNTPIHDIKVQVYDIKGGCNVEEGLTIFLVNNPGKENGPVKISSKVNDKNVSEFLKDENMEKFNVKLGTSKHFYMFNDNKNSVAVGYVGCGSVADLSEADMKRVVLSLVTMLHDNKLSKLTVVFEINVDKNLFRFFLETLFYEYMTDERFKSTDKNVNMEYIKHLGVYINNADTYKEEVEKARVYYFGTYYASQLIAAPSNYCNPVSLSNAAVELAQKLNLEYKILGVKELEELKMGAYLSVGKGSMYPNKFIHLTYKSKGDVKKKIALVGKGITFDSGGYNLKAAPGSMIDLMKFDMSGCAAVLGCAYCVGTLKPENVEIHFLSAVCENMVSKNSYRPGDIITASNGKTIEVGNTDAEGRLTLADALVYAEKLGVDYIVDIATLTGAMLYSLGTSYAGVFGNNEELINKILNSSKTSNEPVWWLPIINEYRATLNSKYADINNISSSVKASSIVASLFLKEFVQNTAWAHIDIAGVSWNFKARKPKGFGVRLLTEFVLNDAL

[1] = target: Aryl hydrocarbon receptor (Homo sapiens, UniProt P35869); test: Luminescence-based cell-based high throughput dose response assay for activators of the Aryl Hydrocarbon Receptor (AHR). [Related pubchem assays: 2796 (Primary screen (AHR activators in singlicate)), 2845 (Confirmation screen (AHR activators in triplicate)), 434939 (Counterscreen (PXR activators in triplicate)), 2804 (Summary (AHR activators))]; type: ADME
Chain of Aryl hydrocarbon receptor (P35869 whole entry): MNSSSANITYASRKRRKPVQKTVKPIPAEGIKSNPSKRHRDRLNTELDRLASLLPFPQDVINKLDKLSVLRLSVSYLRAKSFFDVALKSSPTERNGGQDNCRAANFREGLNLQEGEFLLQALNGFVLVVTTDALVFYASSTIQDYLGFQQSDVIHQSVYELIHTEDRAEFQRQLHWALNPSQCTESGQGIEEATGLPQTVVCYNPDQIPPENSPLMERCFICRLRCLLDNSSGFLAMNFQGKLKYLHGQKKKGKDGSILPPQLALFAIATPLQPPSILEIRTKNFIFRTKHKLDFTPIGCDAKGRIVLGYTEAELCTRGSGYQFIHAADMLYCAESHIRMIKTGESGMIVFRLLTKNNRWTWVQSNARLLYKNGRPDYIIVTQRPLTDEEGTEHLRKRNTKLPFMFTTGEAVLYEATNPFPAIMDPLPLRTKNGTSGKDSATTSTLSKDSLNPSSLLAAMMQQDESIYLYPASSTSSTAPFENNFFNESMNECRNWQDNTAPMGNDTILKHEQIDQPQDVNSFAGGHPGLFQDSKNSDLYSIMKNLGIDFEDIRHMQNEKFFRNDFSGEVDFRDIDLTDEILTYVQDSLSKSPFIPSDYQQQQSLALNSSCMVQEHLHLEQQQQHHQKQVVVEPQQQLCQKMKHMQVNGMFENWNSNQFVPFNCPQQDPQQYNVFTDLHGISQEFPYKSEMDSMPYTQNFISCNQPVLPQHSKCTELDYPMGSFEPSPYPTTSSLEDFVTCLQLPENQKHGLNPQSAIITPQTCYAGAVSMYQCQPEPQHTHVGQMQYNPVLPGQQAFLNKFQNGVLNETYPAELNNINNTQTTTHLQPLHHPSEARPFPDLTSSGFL

NADPH oxidase 1 = target: T2, NADPH oxidase 1 (Homo sapiens, UniProt Q9Y5S8); test: Late stage results from the probe development effort to identify inhibitors of NOX1: HEK/293 IC50. [Related pubchem assays: 1796 (Summary AID (NOX1)), 2752 (Primary screen (NOX1 inhibitors, synthesized analogs set 2)), 2664 (Primary screen (NOX1 inhibitors, synthesized analogs)), 1792 (Primary Screen (NOX1)), 2545 (Confirmation screen (NOX1 …; type: functional
T2 sequence (Q9Y5S8 whole entry): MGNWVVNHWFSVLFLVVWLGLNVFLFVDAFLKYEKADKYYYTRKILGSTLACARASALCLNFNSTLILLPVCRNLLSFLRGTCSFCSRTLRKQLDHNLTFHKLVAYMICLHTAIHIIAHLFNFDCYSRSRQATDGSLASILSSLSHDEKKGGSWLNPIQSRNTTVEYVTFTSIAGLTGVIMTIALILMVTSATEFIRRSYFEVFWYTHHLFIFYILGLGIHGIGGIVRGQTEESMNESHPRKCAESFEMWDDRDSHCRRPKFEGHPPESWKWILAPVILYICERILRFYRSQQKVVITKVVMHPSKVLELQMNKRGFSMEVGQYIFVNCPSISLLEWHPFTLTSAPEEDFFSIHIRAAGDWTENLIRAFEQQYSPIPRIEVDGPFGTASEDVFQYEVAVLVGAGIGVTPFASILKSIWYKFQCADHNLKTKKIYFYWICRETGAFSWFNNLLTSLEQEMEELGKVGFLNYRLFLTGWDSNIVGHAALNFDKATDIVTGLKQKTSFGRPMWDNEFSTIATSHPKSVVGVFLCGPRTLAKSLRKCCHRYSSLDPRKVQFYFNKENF

Vero = test: host cell cytotoxicity of antiviral hits, dose response, cytotoxicity control for West Nile virus antiviral project, secondary assay (AID 1650); type: functional; settings: Chlorocebus sabaeus
[2] = Luminescence Cell-Based Dose Retest to Confirm Inhibitors of Cancer Stem Cells. [Related pubchem assays (depositor defined):AID2717, AID2721]; type: functional; settings: Homo sapiens
[3] = target: T3, Tyrosine-protein phosphatase non-receptor type 7 (Homo sapiens, UniProt P35236); test: inhibitors of human HePTP phosphatase, […], biochemical, absorbance, leukemia target (AID 521); type: functional
T3 sequence (P35236 whole entry): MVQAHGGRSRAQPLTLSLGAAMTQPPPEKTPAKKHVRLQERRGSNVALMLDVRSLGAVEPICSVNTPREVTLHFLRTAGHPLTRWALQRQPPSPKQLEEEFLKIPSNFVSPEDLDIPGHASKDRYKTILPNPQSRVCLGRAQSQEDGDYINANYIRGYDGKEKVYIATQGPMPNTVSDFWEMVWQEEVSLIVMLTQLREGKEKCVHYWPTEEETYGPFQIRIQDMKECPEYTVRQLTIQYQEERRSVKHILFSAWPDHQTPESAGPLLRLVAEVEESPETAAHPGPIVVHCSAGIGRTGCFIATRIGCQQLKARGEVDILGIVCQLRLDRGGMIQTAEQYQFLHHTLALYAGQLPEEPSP

[4] = target: Glyceraldehyde-3-phosphate dehydrogenase (Homo sapiens, UniProt P04406)
Chain of Glyceraldehyde-3-phosphate dehydrogenase (P04406 whole entry): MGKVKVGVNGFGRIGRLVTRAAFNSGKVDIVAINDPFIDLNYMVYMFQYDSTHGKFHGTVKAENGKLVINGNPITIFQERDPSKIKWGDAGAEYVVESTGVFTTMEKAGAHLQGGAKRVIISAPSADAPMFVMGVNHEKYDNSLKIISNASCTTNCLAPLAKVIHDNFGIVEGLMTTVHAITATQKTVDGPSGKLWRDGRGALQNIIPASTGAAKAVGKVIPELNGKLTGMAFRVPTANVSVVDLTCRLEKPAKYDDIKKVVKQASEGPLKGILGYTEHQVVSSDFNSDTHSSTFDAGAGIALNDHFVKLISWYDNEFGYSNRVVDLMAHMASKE

Bcl-2-related protein A1 [5] = target: T4, Bcl-2-related protein A1 (Mus musculus, UniProt Q07440); test: Bfl-1 inhibitors blocking BH3 peptide binding, confirmation, biochemical, TR-FRET, mouse Bfl-1 (AID 621);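 also: TR-FRET binding of GST-Bfl-1 to FITC-labelled Bid peptide via terbium antibody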
T4 sequence (Q07440 whole entry): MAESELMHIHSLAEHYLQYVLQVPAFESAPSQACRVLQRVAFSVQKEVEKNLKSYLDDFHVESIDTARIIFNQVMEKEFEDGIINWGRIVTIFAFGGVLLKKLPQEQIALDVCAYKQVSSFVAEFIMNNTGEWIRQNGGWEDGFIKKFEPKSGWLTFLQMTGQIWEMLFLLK

Bcl-2-related protein A1 [6] = target: T4, Bcl-2-related protein A1; test: Bfl-1 binding inhibitors, SAR follow-up, biochemical, fluorescence polarization (AID 1070)
[7] = NIH-3T3 fibroblast cytotoxicity, dose response, cytotoxicity control, cell-based, fluorescence, Alamar Blue, secondary assay (AID 2327); type: functional;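 also: NIH-3T3 mouse fibroblasts cultured with fluconazole at 8 µg/mL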
[8] = C. albicans growth with fluconazole, confirmation, fluorescence, retest (AID 2467); type: functional, cell-based
[9] = cytotoxicity in HPDE-C7 cells, cell-based, fluorescence, HTS (AID 430); type: functional; settings: Homo sapiens
[10] = Luminescence-based dose response cell-based high throughput screening assay for cytotoxic compounds using the IEC-6 intestinal epithelial cell line. [Related pubchem assays: 1858 (Summary AID.), 1825 (Counterscreen.), 1907 (Confirmation screen.)]; type: functional
[11] = cytotoxicity in KRAS-transformed pancreatic duct cells, primary screen, cell-based, fluorescence, HTS (AID 431); type: functional; settings: Homo sapiens;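 also: cell line used: HPDE-C7K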
[12] = cytotoxicity in HEK-293T cells, dose response, cytotoxicity control for BCR NF-kB inhibitor project, luminescence, B-cell screen hits (AID 489021); type: functional, cell-based;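 also: HEK-293T cells carrying an NF-kB luciferase reporter; cells exposed to compound for about 14 hours before viability readout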
INS1 = test: beta cell apoptosis inhibitors, cytokine rescue, dose response, luminescence, retest (AID 449756); type: functional, cell-based; settings: Rattus norvegicus;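 also: cell death triggered by IL-1 beta plus TNF-alpha plus IFN-gamma mixture; protective hits raise ATP signal compared with cytokine alone wells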
[13] = target: Serine/threonine-protein phosphatase PP1-alpha catalytic subunit (Homo sapiens, UniProt P62136); test: PP1 phosphatase inhibitors, dose response, biochemical, fluorescence (AID 2394)
Chain of Serine/threonine-protein phosphatase PP1-alpha catalytic subunit (P62136 whole entry): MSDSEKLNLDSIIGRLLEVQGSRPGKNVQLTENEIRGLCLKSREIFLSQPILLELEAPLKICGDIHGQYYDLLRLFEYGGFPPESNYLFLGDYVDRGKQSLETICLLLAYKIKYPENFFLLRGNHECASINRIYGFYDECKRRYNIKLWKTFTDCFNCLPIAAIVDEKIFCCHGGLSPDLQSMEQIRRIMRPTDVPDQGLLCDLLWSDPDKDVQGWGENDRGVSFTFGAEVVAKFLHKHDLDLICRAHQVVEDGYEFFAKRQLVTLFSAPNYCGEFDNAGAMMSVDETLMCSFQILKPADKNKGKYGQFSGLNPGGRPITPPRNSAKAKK

[14] = inhibitors of intracellular T. cruzi replication, confirmation, NIH3T3 host cells, beta-gal luminescence (AID 2044); type: functional, cell-based;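 also: intracellular parasites grown in NIH/3T3 mouse fibroblasts as host cells; luminescent beta-galactosidase reporter signal from transgenic T. cruzi replicating inside host cells; inhibitors lower the luminescence signal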
[15] = target: Serine/threonine-protein phosphatase (Homo sapiens, UniProt Q9BPW0); test: PP5 phosphatase inhibitors, dose response, biochemical, fluorescence (AID 2395)
Chain of Serine/threonine-protein phosphatase (Q9BPW0 whole entry): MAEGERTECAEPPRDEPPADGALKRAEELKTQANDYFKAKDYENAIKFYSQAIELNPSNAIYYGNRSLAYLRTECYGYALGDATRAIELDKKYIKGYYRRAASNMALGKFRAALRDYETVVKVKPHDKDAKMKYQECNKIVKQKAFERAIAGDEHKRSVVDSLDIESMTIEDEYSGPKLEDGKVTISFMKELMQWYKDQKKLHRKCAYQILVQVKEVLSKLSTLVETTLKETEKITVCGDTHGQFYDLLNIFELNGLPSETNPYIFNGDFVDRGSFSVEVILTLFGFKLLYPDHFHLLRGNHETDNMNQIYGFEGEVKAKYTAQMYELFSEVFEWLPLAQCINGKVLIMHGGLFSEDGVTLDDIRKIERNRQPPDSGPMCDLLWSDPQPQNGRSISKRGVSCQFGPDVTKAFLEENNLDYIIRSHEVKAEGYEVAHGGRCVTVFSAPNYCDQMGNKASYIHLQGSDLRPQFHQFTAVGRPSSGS

[16] = cytotoxicity toward NIH3T3 fibroblasts, dose response, counter-screen, cell-based, ATP luminescence, mouse fibroblasts (AID 2010); type: functional;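 also: cells exposed to compound for about 90 hours before reading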
[17] = target: T5, Apoptotic protease-activating factor 1 (Homo sapiens, UniProt O14727); type: functional
T5 sequence (O14727 whole entry): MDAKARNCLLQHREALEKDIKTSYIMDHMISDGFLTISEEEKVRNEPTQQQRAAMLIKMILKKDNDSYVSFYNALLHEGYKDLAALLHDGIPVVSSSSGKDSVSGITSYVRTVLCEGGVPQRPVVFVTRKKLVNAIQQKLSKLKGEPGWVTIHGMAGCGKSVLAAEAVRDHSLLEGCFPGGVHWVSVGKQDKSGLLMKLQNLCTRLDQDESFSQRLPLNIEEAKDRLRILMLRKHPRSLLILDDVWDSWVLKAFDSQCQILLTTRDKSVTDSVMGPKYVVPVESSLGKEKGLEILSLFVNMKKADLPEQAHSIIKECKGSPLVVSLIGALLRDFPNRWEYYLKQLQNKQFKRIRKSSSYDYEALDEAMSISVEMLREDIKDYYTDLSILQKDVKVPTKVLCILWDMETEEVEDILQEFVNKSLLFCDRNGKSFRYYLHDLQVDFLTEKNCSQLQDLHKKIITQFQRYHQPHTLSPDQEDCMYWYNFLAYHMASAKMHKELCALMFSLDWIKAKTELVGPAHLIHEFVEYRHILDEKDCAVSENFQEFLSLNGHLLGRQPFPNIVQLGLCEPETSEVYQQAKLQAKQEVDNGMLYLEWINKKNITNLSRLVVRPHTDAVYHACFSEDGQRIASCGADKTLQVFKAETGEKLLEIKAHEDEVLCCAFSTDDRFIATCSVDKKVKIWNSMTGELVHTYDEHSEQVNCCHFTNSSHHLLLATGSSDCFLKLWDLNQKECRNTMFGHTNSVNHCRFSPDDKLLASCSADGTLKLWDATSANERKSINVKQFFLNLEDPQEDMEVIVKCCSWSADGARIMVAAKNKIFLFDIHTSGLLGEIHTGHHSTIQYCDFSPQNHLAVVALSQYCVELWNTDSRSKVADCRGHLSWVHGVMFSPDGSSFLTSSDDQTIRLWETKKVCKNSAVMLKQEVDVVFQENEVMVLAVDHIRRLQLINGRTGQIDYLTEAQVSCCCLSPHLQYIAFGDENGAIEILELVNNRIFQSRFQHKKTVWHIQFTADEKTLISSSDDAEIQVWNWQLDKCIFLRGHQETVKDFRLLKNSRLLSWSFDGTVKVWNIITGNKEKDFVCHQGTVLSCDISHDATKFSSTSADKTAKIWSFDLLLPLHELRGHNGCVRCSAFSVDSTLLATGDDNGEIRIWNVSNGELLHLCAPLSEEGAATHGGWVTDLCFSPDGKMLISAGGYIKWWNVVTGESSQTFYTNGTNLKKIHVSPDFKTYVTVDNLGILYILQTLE

[18] = target: Histone-lysine N-methyltransferase NSD2 (Homo sapiens, UniProt O96028); type: biochemical
Chain of Histone-lysine N-methyltransferase NSD2 (O96028 whole entry): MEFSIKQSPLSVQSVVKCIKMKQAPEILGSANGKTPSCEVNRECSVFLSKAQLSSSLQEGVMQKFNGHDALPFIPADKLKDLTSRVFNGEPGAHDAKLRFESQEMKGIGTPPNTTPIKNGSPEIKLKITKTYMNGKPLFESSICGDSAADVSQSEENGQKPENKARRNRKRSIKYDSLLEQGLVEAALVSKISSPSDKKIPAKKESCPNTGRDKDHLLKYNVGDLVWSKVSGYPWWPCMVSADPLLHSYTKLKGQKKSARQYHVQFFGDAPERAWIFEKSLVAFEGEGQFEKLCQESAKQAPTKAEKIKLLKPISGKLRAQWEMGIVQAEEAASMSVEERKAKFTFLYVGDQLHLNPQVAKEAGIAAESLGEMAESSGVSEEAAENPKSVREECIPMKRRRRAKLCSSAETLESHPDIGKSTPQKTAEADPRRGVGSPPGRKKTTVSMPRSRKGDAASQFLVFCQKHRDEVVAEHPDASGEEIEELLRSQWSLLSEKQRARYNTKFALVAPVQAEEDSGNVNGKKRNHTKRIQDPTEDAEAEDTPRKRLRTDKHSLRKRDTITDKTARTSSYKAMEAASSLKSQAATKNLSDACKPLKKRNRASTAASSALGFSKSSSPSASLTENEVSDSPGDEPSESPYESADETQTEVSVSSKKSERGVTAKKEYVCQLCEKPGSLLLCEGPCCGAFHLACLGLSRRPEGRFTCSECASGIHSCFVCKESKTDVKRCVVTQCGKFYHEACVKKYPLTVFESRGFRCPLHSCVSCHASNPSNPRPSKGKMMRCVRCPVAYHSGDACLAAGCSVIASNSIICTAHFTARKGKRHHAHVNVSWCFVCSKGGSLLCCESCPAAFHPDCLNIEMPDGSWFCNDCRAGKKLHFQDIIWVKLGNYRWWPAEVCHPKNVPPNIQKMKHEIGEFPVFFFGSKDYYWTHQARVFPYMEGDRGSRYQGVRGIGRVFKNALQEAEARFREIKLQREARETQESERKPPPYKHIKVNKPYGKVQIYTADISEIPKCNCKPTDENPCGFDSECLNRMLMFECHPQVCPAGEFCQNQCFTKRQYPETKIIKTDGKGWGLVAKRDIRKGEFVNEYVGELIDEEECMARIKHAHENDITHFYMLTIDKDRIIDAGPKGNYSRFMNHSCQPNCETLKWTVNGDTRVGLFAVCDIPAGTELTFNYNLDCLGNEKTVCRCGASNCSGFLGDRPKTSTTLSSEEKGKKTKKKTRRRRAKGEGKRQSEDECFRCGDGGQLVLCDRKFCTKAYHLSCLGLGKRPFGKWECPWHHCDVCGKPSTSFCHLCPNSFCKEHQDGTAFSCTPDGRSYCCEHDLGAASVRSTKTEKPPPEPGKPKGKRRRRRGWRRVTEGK

[19] = target: RNA-editing ligase 1, mitochondrial (Trypanosoma brucei brucei, UniProt P86926); test: TbREL1 ligase inhibitors, dose response, biochemical, fluorescence, Trypanosoma brucei (AID 1117295); type: functional
Chain of RNA-editing ligase 1, mitochondrial (P86926 whole entry): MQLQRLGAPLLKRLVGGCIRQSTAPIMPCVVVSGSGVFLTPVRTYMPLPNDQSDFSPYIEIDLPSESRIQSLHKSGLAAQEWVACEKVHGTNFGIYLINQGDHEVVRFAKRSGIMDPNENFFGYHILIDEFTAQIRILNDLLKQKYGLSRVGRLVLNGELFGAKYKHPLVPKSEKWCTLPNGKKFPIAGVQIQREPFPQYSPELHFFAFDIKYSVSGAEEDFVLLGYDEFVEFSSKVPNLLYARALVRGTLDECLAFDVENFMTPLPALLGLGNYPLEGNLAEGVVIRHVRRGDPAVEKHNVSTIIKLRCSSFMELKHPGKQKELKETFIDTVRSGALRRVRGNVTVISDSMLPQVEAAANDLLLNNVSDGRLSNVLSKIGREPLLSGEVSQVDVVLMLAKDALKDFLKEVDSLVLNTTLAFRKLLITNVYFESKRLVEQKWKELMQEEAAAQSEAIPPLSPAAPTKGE

- IC50 (Leucine aminopeptidase): 44.5 µM (active)
- EC50 [1]: 12.5 µM (not active)
SMILES: Nc1[nH]ncc1C(=O)Nc1cccc(C(F)(F)F)c1

- IC50 (NADPH oxidase 1): 360 nM (active)
SMILES: c1ccc2c(c1)Nc1nc3ccccc3nc1N2

- IC50 [3]: > 100 µM (not active)
SMILES: CCc1ccccc1N(CC(=O)OC)S(C)(=O)=O

- IC50 [4]: > 100 µM (not active)
- IC50 (Bcl-2-related protein A1 [5]): 4.96 µM (active)
- IC50 (Bcl-2-related protein A1 [6]): 12.6 µM (active)
SMILES: COCCNC1=C(Cl)C(=O)N(c2ccc(Cl)c(Cl)c2)C1=O

Further lines, the molecule ahead of its results:

SMILES: Cc1cc(C)c(C(=O)/C=C/c2ccc(C(C)C)cc2)c(O)n1
- CC50 (Vero): 35.8 µM (active)
- AC50 [2]: 9.65 µM (active)

SMILES: C[C@H]1CCC/C=C/C2C[C@H](O)CC2[C@H](O)/C=C/C(=O)O1 (stereo partly drawn)
- EC50 [7]: 2.37 µM (inconclusive)
- EC50 [8]: 843 nM (active)
- EC50 [9]: 230 nM (active)
- IC50 [10]: 446 nM (active)
- EC50 [11]: 240 nM (active)
- IC50 [12]: > 80 µM (inactive)
- AC50 (INS1): 1.01 µM (active)

SMILES: Oc1ccccc1/C=N/Nc1cc(N2CCCC2)nc(N2CCCC2)n1
- IC50 [13]: 34.4 µM (not active)
- EC50 [14]: 1.85 µM (active)
- IC50 [15]: 4.26 µM (active)
- EC50 [16]: > 60 µM (inconclusive)
- IC50 [17]: 1.03 µM (active)
- AC50 [18]: 1.97 µM (active)
- IC50 [19]: > 96.6 µM (inactive)
